Patent US6620828B2, “Thiazole compounds and pharmaceutical compositions for inhibiting protein kinases and methods for their use” (Agouron Pharmaceuticals, Inc., priority 1999, dated 2003)
Where two headings read alike, the source gives them in different places.

Tested on: human umbilical vein endothelial cells (HUVEC)
Test: HUVEC proliferation assay
Assay type: cell-based
Settings: Homo sapiens, HUVEC, Inhibition of HUVEC Proliferation, 50 nM, crude combinatorial urea library
Method in brief: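 Exponentially growing HUVEC were serum-starved 24 h (F12K + 1% FBS), pre-treated 1 h with compound (0.1% DMSO final), then stimulated with 6 ng/ml VEGF. Proliferation was read 72 h later by MTT reduction (A595). IC50 came from seven 0.5-log concentrations in triplicate; screens gave % inhibition relative to VEGF-only and starved wells.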

Compound | inhibition at 0.05 µM (read-out: % inhibition @ 50 nM) | inhibition at 0.05 µM (read-out: Inhibition @ 50 nM)
COc1cccc(C(=O)Nc2cc(-c3csc(-c4sc(NC(=O)NCCNc5ccccc5)nc4N)n3)c(F)cc2F)c1 | 60% | 
COc1cccc(C(=O)Nc2cc(-c3csc(-c4sc(NC(=O)NCC(C)O)nc4N)n3)c(F)cc2F)c1 (centres unmarked) | 111% | 
COc1cccc(C(=O)Nc2cc(-c3csc(-c4sc(NC(=O)NCC5CCC=CO5)nc4N)n3)c(F)cc2F)c1 (centres unmarked) | 42% | 
COc1cccc(C(=O)Nc2cc(-c3csc(-c4sc(NC(=O)NCCc5ccc(N)cc5)nc4N)n3)c(F)cc2F)c1 | 65% | 
COc1cccc(C(=O)Nc2cc(-c3csc(-c4sc(NC(=O)NCCCN5CCOCC5)nc4N)n3)c(F)cc2F)c1 | 81% | 
COc1cccc(C(=O)Nc2cc(-c3csc(-c4sc(NC(=O)NCCC(C)C)nc4N)n3)c(F)cc2F)c1 | 55% | 
COc1cccc(C(=O)Nc2cc(-c3csc(-c4sc(NC(=O)NCC5CCCO5)nc4N)n3)c(F)cc2F)c1 (centres unmarked) | 92% | 
COc1cccc(C(=O)Nc2cc(-c3csc(-c4sc(NC(=O)NCCC5CCCN5C)nc4N)n3)c(F)cc2F)c1 (centres unmarked) | 27% | 
COc1cccc(C(=O)Nc2cc(-c3csc(-c4sc(NC(=O)NCCN5CCCCC5)nc4N)n3)c(F)cc2F)c1 | 74% | 
COc1cccc(C(=O)Nc2cc(-c3csc(-c4sc(NC(=O)NCCCN5CCCCC5C)nc4N)n3)c(F)cc2F)c1 (centres unmarked) | 86% | 
COc1cccc(C(=O)Nc2cc(-c3csc(-c4sc(NC(=O)NC5CCN(Cc6ccccc6)CC5)nc4N)n3)c(F)cc2F)c1 | 66% | 
COc1cccc(C(=O)Nc2cc(-c3csc(-c4sc(NC(=O)NCC(C)(C)CN(C)C)nc4N)n3)c(F)cc2F)c1 | 75% | 
COc1cccc(C(=O)Nc2cc(-c3csc(-c4sc(NC(=O)N[C@H]5CC[C@H](O)CC5)nc4N)n3)c(F)cc2F)c1 | 81% | 
COc1cccc(C(=O)Nc2cc(-c3csc(-c4sc(NC(=O)NCCC(=O)O)nc4N)n3)c(F)cc2F)c1 | 66% | 
COCCNC(=O)Nc1nc(N)c(-c2nc(-c3cc(NC(=O)c4cccc(OC)c4)c(F)cc3F)cs2)s1 | 21% | 
COc1cccc(C(=O)Nc2cc(-c3csc(-c4sc(NC(=O)NCC(F)(F)F)nc4N)n3)c(F)cc2F)c1 | 2% | 
COc1cccc(C(=O)Nc2cc(-c3csc(-c4sc(NC(=O)NCCCn5ccnc5)nc4N)n3)c(F)cc2F)c1 | 6% | 
COc1cccc(C(=O)Nc2cc(-c3csc(-c4sc(NC(=O)NCCc5ccc(S(N)(=O)=O)cc5)nc4N)n3)c(F)cc2F)c1 | 25% | 
CCCCN(CC)CCNC(=O)Nc1nc(N)c(-c2nc(-c3cc(NC(=O)c4cccc(OC)c4)c(F)cc3F)cs2)s1 | 24% | 
COc1cccc(C(=O)Nc2cc(-c3csc(-c4sc(NC(=O)NCc5ccc(N(C)C)cc5)nc4N)n3)c(F)cc2F)c1 | 39% | 
COc1cccc(C(=O)Nc2cc(-c3csc(-c4sc(NC(=O)NCP(=O)(O)O)nc4N)n3)c(F)cc2F)c1 | 48% | 
COc1cccc(C(=O)Nc2cc(-c3csc(-c4sc(NC(=O)NC(CO)CO)nc4N)n3)c(F)cc2F)c1 | 76% | 
COc1cccc(C(=O)Nc2cc(-c3csc(-c4sc(NC(=O)NCc5ccc(N)cc5)nc4N)n3)c(F)cc2F)c1 | 83% | 
COc1cccc(C(=O)Nc2cc(-c3csc(-c4sc(NC(=O)N[C@@H](CO)C(N)=O)nc4N)n3)c(F)cc2F)c1 | 69% | 

Compound | inhibition at 0.05 µM (read-out: % inhibition @ 50 nM) | inhibition at 0.05 µM (read-out: Inhibition @ 50 nM)
CNC(=O)Nc1nc(N)c(-c2nc(-c3cc(NC(=O)c4cccc(OC)c4)c(F)cc3F)cs2)s1 | 99% | 
COc1cccc(C(=O)Nc2cc(-c3csc(-c4sc(NC(=O)NCCNC(C)=O)nc4N)n3)c(F)cc2F)c1 | 105% | 
COc1cccc(C(=O)Nc2cc(-c3csc(-c4sc(NC(=O)N[C@H](CO)Cc5c[nH]cn5)nc4N)n3)c(F)cc2F)c1 | 47% | 
CCC(CO)NC(=O)Nc1nc(N)c(-c2nc(-c3cc(NC(=O)c4cccc(OC)c4)c(F)cc3F)cs2)s1 (centres unmarked) | 108% | 
COc1cccc(C(=O)Nc2cc(-c3csc(-c4sc(NC(=O)NCCCC(=O)O)nc4N)n3)c(F)cc2F)c1 | 40% | 
COc1cccc(C(=O)Nc2cc(-c3csc(-c4sc(NC(=O)NCCN5CCNCC5)nc4N)n3)c(F)cc2F)c1 | 46% | 
COc1cccc(C(=O)Nc2cc(-c3csc(-c4sc(NC(=O)NCCc5ccccn5)nc4N)n3)c(F)cc2F)c1 | 105% | 
COc1cccc(C(=O)Nc2cc(-c3csc(-c4sc(NC(=O)NCc5cccnc5)nc4N)n3)c(F)cc2F)c1 | 102% | 
COc1cccc(C(=O)Nc2cc(-c3csc(-c4sc(NC(=O)NCc5ccncc5)nc4N)n3)c(F)cc2F)c1 | 95% | 
COc1cccc(C(=O)Nc2cc(-c3csc(-c4sc(NC(=O)NCC(O)CO)nc4N)n3)c(F)cc2F)c1 (centres unmarked) | 74% | 
COc1cccc(C(=O)Nc2cc(-c3csc(-c4sc(NC(=O)NC(C)CO)nc4N)n3)c(F)cc2F)c1 (centres unmarked) | 98% | 
COc1cccc(C(=O)Nc2cc(-c3csc(-c4sc(NC(=O)NCCCN(C)C)nc4N)n3)c(F)cc2F)c1 | 72% | 
COc1cccc(C(=O)Nc2cc(-c3csc(-c4sc(NC(=O)NCCN(C)C)nc4N)n3)c(F)cc2F)c1 | 63% | 
COc1cccc(C(=O)Nc2cc(-c3csc(-c4sc(NC(=O)NCC(C)(C)N)nc4N)n3)c(F)cc2F)c1 | 73% | 
CCCCN(CCCC)CCCNC(=O)Nc1nc(N)c(-c2nc(-c3cc(NC(=O)c4cccc(OC)c4)c(F)cc3F)cs2)s1 | 81% | 
COc1cccc(C(=O)Nc2cc(-c3csc(-c4sc(NC(=O)NCCCCN(C)C)nc4N)n3)c(F)cc2F)c1 | 30% | 
COc1cccc(C(=O)Nc2cc(-c3csc(-c4sc(NC(=O)NCCCCCCN(C)C)nc4N)n3)c(F)cc2F)c1 | 83% | 
COc1cccc(C(=O)Nc2cc(-c3csc(-c4sc(NC(=O)NCC(C)N(C)C)nc4N)n3)c(F)cc2F)c1 (centres unmarked) | 22% | 
COc1cccc(C(=O)Nc2cc(-c3csc(-c4sc(NC(=O)NCCCN5CCCCCC5)nc4N)n3)c(F)cc2F)c1 | 86% | 
COc1cccc(C(=O)Nc2cc(-c3csc(-c4sc(NC(=O)NCCCN5CCCCC5)nc4N)n3)c(F)cc2F)c1 | 89% | 
COc1cccc(C(=O)Nc2cc(-c3csc(-c4sc(NC(=O)NC5CCS(=O)(=O)C5)nc4N)n3)c(F)cc2F)c1 (centres unmarked) | 100% | 
COc1cccc(C(=O)Nc2cc(-c3csc(-c4sc(NC(=O)NCCC(=O)NCC(=O)O)nc4N)n3)c(F)cc2F)c1 | 57% | 
COc1cccc(C(=O)Nc2cc(-c3csc(-c4sc(NC(=O)NCC#N)nc4N)n3)c(F)cc2F)c1 | 71% | 
COc1cccc(C(=O)Nc2cc(-c3csc(-c4sc(NC(=O)NCC(=O)NO)nc4N)n3)c(F)cc2F)c1 | 19% | 

Compound | inhibition at 0.05 µM (read-out: % inhibition @ 50 nM) | inhibition at 0.05 µM (read-out: Inhibition @ 50 nM)
COc1cccc(C(=O)Nc2cc(-c3csc(-c4sc(NC(=O)NCC(=O)O)nc4N)n3)c(F)cc2F)c1 | 23% | 
COc1cccc(C(=O)Nc2cc(-c3csc(-c4sc(NC(=O)NCCS(=O)(=O)O)nc4N)n3)c(F)cc2F)c1 | 27% | 
CCC(O)CNC(=O)Nc1nc(N)c(-c2nc(-c3cc(NC(=O)c4cccc(OC)c4)c(F)cc3F)cs2)s1 (centres unmarked) | 104% | 
COc1cccc(C(=O)Nc2cc(-c3csc(-c4sc(NC(=O)NCC(C)(C)CO)nc4N)n3)c(F)cc2F)c1 | 120% | 
CCN1CC(NC(=O)Nc2nc(N)c(-c3nc(-c4cc(NC(=O)c5cccc(OC)c5)c(F)cc4F)cs3)s2)CN1CC | 82% | 
CCN(CCNC(=O)Nc1nc(N)c(-c2nc(-c3cc(NC(=O)c4cccc(OC)c4)c(F)cc3F)cs2)s1)c1cccc(C)c1 | 18% | 
COc1cccc(C(=O)Nc2cc(-c3csc(-c4sc(NC(=O)NCC(=N)N)nc4N)n3)c(F)cc2F)c1 | 17% | 
COc1cccc(C(=O)Nc2cc(-c3csc(-c4sc(NC(=O)NCC(C)(C)C)nc4N)n3)c(F)cc2F)c1 | 43% | 
COc1cccc(C(=O)Nc2cc(-c3csc(-c4sc(NC(=O)NCC5(O)CCCCC5)nc4N)n3)c(F)cc2F)c1 | 72% | 
COc1cccc(C(=O)Nc2cc(-c3csc(-c4sc(NC(=O)NCCc5c[nH]cn5)nc4N)n3)c(F)cc2F)c1 | 55% | 
COc1cccc(C(=O)Nc2cc(-c3csc(-c4sc(NC(=O)NCS(=O)(=O)O)nc4N)n3)c(F)cc2F)c1 | 0% | 
COc1cccc(C(=O)Nc2cc(-c3csc(-c4sc(NC(=O)NCCCN(C)c5ccccc5)nc4N)n3)c(F)cc2F)c1 | 45% | 
COc1cccc(C(=O)Nc2cc(-c3csc(-c4sc(NC(=O)NCc5ccc(S(N)(=O)=O)cc5)nc4N)n3)c(F)cc2F)c1 | 77% | 
COc1cccc(C(=O)Nc2cc(-c3csc(-c4sc(NC(=O)NCCCN(CCO)CCO)nc4N)n3)c(F)cc2F)c1 | 51% | 
CCN(CC)CCNC(=O)Nc1nc(N)c(-c2nc(-c3cc(NC(=O)c4cccc(OC)c4)c(F)cc3F)no2)s1 |  | 82%
CCN(CC)CCCNC(=O)Nc1nc(N)c(-c2nc(-c3cc(NC(=O)c4cccc(OC)c4)c(F)cc3F)no2)s1 |  | 85%
COc1cccc(C(=O)Nc2cc(-c3noc(-c4sc(NC(=O)NCCc5cccnc5)nc4N)n3)c(F)cc2F)c1 |  | 38%
COc1cccc(C(=O)Nc2cc(-c3noc(-c4sc(NC(=O)N[C@@H](CC(N)=O)C(N)=O)nc4N)n3)c(F)cc2F)c1 |  | 86%
CNC(=O)CNC(=O)Nc1nc(N)c(-c2nc(-c3cc(NC(=O)c4cccc(OC)c4)c(F)cc3F)no2)s1 |  | 51%
COc1cccc(C(=O)Nc2cc(-c3noc(-c4sc(NC(=O)NCCc5cncn5C)nc4N)n3)c(F)cc2F)c1 |  | 10%
CCN1CCCC1CNC(=O)Nc1nc(N)c(-c2nc(-c3cc(NC(=O)c4cccc(OC)c4)c(F)cc3F)no2)s1 (centres unmarked) |  | 12%
COc1cccc(C(=O)Nc2cc(-c3noc(-c4sc(NC(=O)NC(C)CN(C)C)nc4N)n3)c(F)cc2F)c1 (centres unmarked) |  | 27%
COc1cccc(C(=O)Nc2cc(-c3noc(-c4sc(NC(=O)NCCCN5CCCC5)nc4N)n3)c(F)cc2F)c1 |  | 75%
